Measurements published in paper PMC7118841 (Biomedicine & Pharmacotherapy, 2006).
Read-outs that look alike come from different tables or passages of the source.

Key:
[1] = tested on: HMV-2; details: read-out: IC50, cytotoxicity HMV-2; MTT method; cited from earlier work
[2] = tested on: RSV-B (SM-61-48); details: read-out: EC50, RSV-B (SM-61-48); MTT method; data from one experiment; cited from earlier work
[3] = tested on: MDCK; details: read-out: IC50, cytotoxicity MDCK; MTT method; cited from earlier work
[4] = tested on: HEp-2; details: read-out: IC50, cytotoxicity HEp-2; MTT method; cited from earlier work
[5] = tested on: Vero; details: read-out: IC50, cytotoxicity Vero; MTT method; cited from earlier work
[6] = tested on: ortho- and paramyxoviruses, herpesviruses and retroviruses (HIV-1 and 2); details: cited from earlier work
[7] = tested on: RSV; details: cited from earlier work
[8] = tested on: MDCK cells; details: cited from earlier work
[9] = tested on: PfluV 2; details: cited from earlier work; for EC50: read-out: EC50, PfluV 2, MTT method
[10] = tested on: CDV; details: cited from earlier work; for EC50: read-out: EC50, CDV, plaque reduction method
[11] = tested on: RSV; details: read-out: EC50, RSV; MTT method; cited from earlier work
[12] = tested on: FluV A (H1N1/PR8); details: cited from earlier work
[13] = tested on: DFV; details: read-out: EC50, DFV; MTT method; cited from earlier work
[14] = tested on: FluV A; details: read-out: EC50, FluV A; MTT method; cited from earlier work
[15] = tested on: SARS-V; format: cell-based, SARS coronavirus; details: read-out: EC50, SARS-V
[16] = tested on: TGEV; format: cell-based, transmissible gastroenteritis virus of swine; details: read-out: EC50, TGEV
[17] = tested on: FIPV; format: cell-based, feline infectious peritonitis virus; details: read-out: EC50, FIPV
[18] = tested on: HIV-1; details: read-out: EC50, HIV-1; MTT method; cited from earlier work
[19] = tested on: HIV; details: read-out: EC50, anti-HIV, MAGI test; HeLa CD4/LTR-β-Gal cells; cited from earlier work
[20] = tested on: syncytium formation between MOLT-4 cells (uninfected cells) and MOLT-4/IIIb cells (infected cells); details: MOLT-4 and MOLT-4/IIIb cells; cited from earlier work
[21] = tested on: gp-120; details: polyclonal mouse antibody; cited from earlier work
[22] = tested on: CXCR4; details: monoclonal mouse antibody; cited from earlier work
[23] = tested on: CD4; details: mouse antibody; cited from earlier work
[24] = tested on: FluV; details: given either orally or intraperitoneally; cited from earlier work
[25] = tested on: RSV-A; details: read-out: EC50 against RSV-A; compound present 1.5–3 hours; cited from earlier work
[26] = tested on: FluV-A; details: cited from earlier work
[27] = tested on: FluV-A; details: read-out: EC50 against FluV-A; compound present 1.5–3 hours; cited from earlier work
[28] = tested on: RSV; details: HeLa cells; compound after virus adsorption; cited from earlier work
[29] = tested on: RSV-A; details: cited from earlier work
[30] = tested on: FluV; details: data not shown; cited from earlier work
[31] = tested on: FluV A; details: read-out: EC50 against FluV A; cited from earlier work
[32] = tested on: FluV A binding to MDCK cells; details: 8–200 μM of compound during 1.5 hour incubation at 37 °C, moi 1; cited from earlier work

Compound: [Na16Fe4(H2O)2(P2W15O56)2]nH2O [HS-054]
- IC50 [1]: > 200 µM
- EC50 [2]: 7.8 µM
- IC50 [3]: > 200 µM
- IC50 [4]: 88 µM
- IC50 [5]: 50 µM

Compound: [(Me3NH)8Si2W18Nb6O77]nH2O [HS-106]
- IC50 [1]: 20.7 µM
- antiviral activity [6]: broad spectrum antiviral activity
- EC50 [2]: 4.5 µM
- IC50 [3]: > 200 µM
- anti-RSV activity [7]: most potent and selective anti-RSV activity
- IC50 [4]: > 200 µM
- IC50 [5]: 148 µM

Compound: NC(=O)c1ncn([C@@H]2O[C@H](CO)[C@@H](O)[C@H]2O)n1 [Ribavirin, reference compound]
- Percent viability of cells ([8]; single compound at 100 μM, untreated cells = 100%): 107.2 ± 1.7%
- Percent viability of cells ([8]; single compound at 200 μM): 104.8 ± 3.8%
- Percent viability of cells ([8]; single compound at 400 μM): 102.8 ± 4.1%
- IC50 [1]: > 100 µM
- EC50 [2]: 1.6 µM
- EC50 [9]: 14 ± 4.8 µM
- IC50 [3]: > 200 µM
- EC50 [10]: 74 ± 35 µM
- EC50 [11]: 3.9 ± 3.1 µM
- appearance of lungs of infected mice ([12]; 40 mM ribavirin alone, data not shown): swollen and reddened due to congestion
- mice survived on the 9th day ([12]; 80 mM ribavirin aerosol every 12 hours for 4 days): 60%
- survival at 14 days after the infection ([12]; 80 mM ribavirin alone): 30%
- EC50 [13]: > 100 µM
- IC50 [4]: 52.7 µM
- EC50 [14]: 5 ± 2.8 µM
- IC50 [5]: 100 µM

Compound: [Et2NH2]7[PTi2W10O40] [PM-518]
- EC50 [15]: > 50 µM
- EC50 [9]: 53 ± 39 µM
- antiviral activity against CDV [10]: did not have antiviral activities
- EC50 [10]: > 50 µM
- EC50 [11]: 26.5 µM
- EC50 [13]: 36.8 ± 3 µM
- EC50 [16]: 2.1 ± 1.1 µM
- EC50 [17]: > 32.9 µM
- EC50 [14]: 62 ± 27 µM
- EC50 [18]: 2 ± 0.8 µM

Compound: [Pri2NH2]5[PTiW11O40] [PM-520]
- EC50 [15]: 4.9 ± 1.4 µM
- EC50 [9]: 23 ± 2.4 µM
- EC50 [10]: 7.4 ± 0.4 µM
- EC50 [11]: 0.74 ± 0.6 µM
- EC50 [13]: 11.7 ± 7.1 µM
- EC50 [16]: 1.4 ± 1.3 µM
- EC50 [17]: 0.76 ± 0.5 µM
- EC50 [14]: 45 ± 26 µM
- EC50 [18]: 2 ± 0.5 µM

Compound: Na7H9{Eu3O(OH)3(H2O)3}2Al2(Nb6O19)5}47H2O [PM-802]
- EC50 [15]: > 50 µM
- EC50 [16]: 0.5 ± 0.5 µM
- EC50 [17]: 0.03 ± 0.01 µM

Compound: K12[(VO)3(PW9O34)2]nH2O [PM-1213]
- EC50 [15]: 0.47 ± 0.14 µM
- EC50 [16]: 1.7 ± 1 µM
- EC50 [17]: > 10.5 µM

Compound: K11H[(VO)3(SbW9O33)2]27H2O [PM-1002]
- EC50 [15]: 0.25 ± 0.07 µM
- EC50 [19]: 0.018 µM
- EC50 [9]: 0.75 ± 0.05 µM
- EC50 [10]: 2.8 ± 1 µM
- EC50 [11]: 0.75 ± 0.05 µM
- EC50 [13]: 2 ± 1.4 µM
- EC50 [16]: 0.6 ± 0.4 µM
- inhibition of syncytium formation [20]: inhibited syncytium formation
- EC50 [14]: 4 ± 1.7 µM
- EC50 [18]: 0.03 ± 0.01 µM

Compound: K10Na[(VO)3(SbW9O33)2]26H2O [PM-1001]
- EC50 [15]: 0.7 ± 0.4 µM
- EC50 [19]: 0.01 µM
- inhibition of binding of anti-gp120 antibody to gp-120 [21]: inhibited
- inhibition of binding of anti-CRCX4 antibody to its target molecule [22]: did not inhibit
- inhibition of binding of anti-CD4 antibody to its target molecule [23]: did not inhibit
- EC50 [9]: 1.1 ± 0.9 µM
- EC50 [10]: 5.7 ± 0.5 µM
- EC50 [11]: < 0.16 µM
- EC50 [16]: 0.14 ± 0.1 µM
- inhibition of syncytium formation [20]: inhibited syncytium formation
- EC50 [17]: 0.2 ± 0.1 µM
- EC50 [14]: 1.75 ± 1.6 µM
- EC50 [18]: 0.14 ± 0.17 µM

Compound: Ce2H[BW11Mn(H2O)O39] [HPB-2]
- therapeutic effect against FluV infection in mice [24]: potent therapeutic effect

Compound: [NH4]12H(BiW9O33)3Bi6(OH)3(H2O)3V4H10]25H2O [PM-1210]
- EC50 [15]: 0.76 ± 0.3 µM
- EC50 [16]: 1.6 ± 1.1 µM
- EC50 [17]: 0.74 ± 0.4 µM

Compound: K12Nb6P2W12O62 [HS-158]
- IC50 [1]: 53.7 µM
- EC50 [2]: 2.7 µM
- IC50 [3]: 164 µM
- IC50 [4]: 82.7 µM
- IC50 [5]: > 200 µM

Compound: [K10Fe4(H2O)2 (PW9O34)2]nH2O [HS-058]
- EC50 [25]: > 20 µM
- Inhibition of RNA and protein synthesis [26]: Probably no
- Inhibition of fusion between infected and uninfected cells [26]: Unclear
- EC50 [27]: > 31 µM
- IC50 [1]: 50 µM
- EC50 [2]: 3.1 µM
- IC50 [3]: > 200 µM
- IC50 [4]: > 200 µM
- concentration inhibiting syncytium formation of RSV [28]: 8.5 µM
- Inhibition of RNA and protein synthesis [29]: Probably no
- Inhibition of fusion of virus envelope and cell membrane [29]: Unclear
- concentration inhibiting hemolysis of chicken erythrocytes by FluV [30]: 58 µM
- IC50 [5]: 50 µM

Compound: K7[BVW11O40] [PM-47]
- EC50 [9]: 67.1 µM
- EC50 [10]: 6 ± 0.6 µM
- EC50 [11]: 29 µM
- EC50 [13]: 10.5 ± 6.9 µM
- EC50 [14]: 11.5 ± 0.6 µM
- EC50 [18]: 0.03 ± 0.01 µM

Compound: K12[(VO)3(BiW9O33)2]29H2O [PM-1208]
- EC50 [15]: 2.7 ± 0.6 µM
- EC50 [16]: 2 ± 1.8 µM
- EC50 [17]: > 3.6 µM

Compound: K12[(VO)3(AsW9O33)2]12H2O [PM-1207]
- EC50 [15]: 0.9 ± 0.24 µM
- EC50 [16]: 1.9 ± 1.4 µM
- EC50 [17]: 0.09 ± 0.04 µM

Compound: K5[SiVW11O40] [PM-43]
- antiviral activity against PfluV 2 [9]: did not have antiviral activities
- EC50 [9]: > 100 µM
- EC50 [10]: 7.5 ± 1 µM
- EC50 [11]: 1.6 µM
- EC50 [13]: 10.7 ± 6.7 µM
- EC50 [14]: 8.4 ± 6.5 µM
- EC50 [18]: 0.3 ± 0.12 µM

Compound: (NBu4)4(PriNH3) [PTi2W10O38(O2)2]2H2O [PM-803]
- EC50 [16]: 0.34 ± 0.3 µM
- EC50 [17]: > 21 µM

Compound: K9H6(Ge2Ti6W18O77)16H2O [PM-504]
- EC50 [15]: 3.5 ± 2.4 µM
- EC50 [31]: 1.3 µM
- inhibition of the binding of FluV to MDCK cells (FACS) [32]: inhibited the binding
- EC50 [16]: 1.4 ± 0.5 µM
- EC50 [17]: 0.4 ± 0.3 µM
